Experiments:
Type in all cases: in vivo
[1] = system: velvetleaf (Abutilon theophrasti); assay: Test B postemergence; settings: 13 to 15 days
Summary of the method: (§1)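 Pre: seeded pots sprayed, chemical in non-phytotoxic solvent/surfactant mix. Post: plants 2–18 cm, 1–4 leaf, same formulation. Greenhouse 13–15 d; visual % control vs untreated, 0–100 scale.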

[2] = system: cocklebur (Xanthium strumarium); assay: Test B postemergence; settings: 13 to 15 days
Summary of the method: as §1

[3] = system: pigweed (Amaranthus retroflexus); assay: Test B postemergence; settings: 13 to 15 days
Summary of the method: as §1

[4] = system: lambsquarters (Chenopodium album); assay: Test B postemergence; settings: 13 to 15 days
Summary of the method: as §1

[5] = system: barnyardgrass (Echinochloa crus-galli); assay: Test B postemergence; settings: 13 to 15 days
Summary of the method: as §1

[6] = system: giant foxtail (Setaria faberii); assay: Test B postemergence; settings: 13 to 15 days
Summary of the method: as §1

[7] = system: blackgrass (Alopecurus myosuroides); assay: Test B postemergence; settings: 13 to 15 days
Summary of the method: as §1

[8] = system: morning glory (Ipomoea hederacea); assay: Test B postemergence; settings: 13 to 15 days
Summary of the method: as §1

[9] = system: crabgrass (Digitaria sanguinalis); assay: Test B postemergence; settings: 13 to 15 days
Summary of the method: as §1

[10] = system: Surinam grass (Brachiaria decumbens); assay: Test B postemergence; settings: 13 to 15 days
Summary of the method: as §1

wild oat (Avena fatua) = assay: Test B postemergence; settings: 13 to 15 days
Summary of the method: as §1

corn (Zea mays) [11] = assay: Test B postemergence; settings: 13 to 15 days
Summary of the method: as §1

[12] = system: wheat (Triticum aestivum); assay: Test B postemergence; settings: 13 to 15 days
Summary of the method: as §1

[13] = system: velvetleaf (Abutilon theophrasti); assay: Test B preemergence
Summary of the method: as §1

[14] = system: cocklebur (Xanthium strumarium); assay: Test B preemergence
Summary of the method: as §1

[15] = system: pigweed (Amaranthus retroflexus); assay: Test B preemergence
Summary of the method: as §1

[16] = system: lambsquarters (Chenopodium album); assay: Test B preemergence
Summary of the method: as §1

[17] = system: barnyardgrass (Echinochloa crus-galli); assay: Test B preemergence
Summary of the method: as §1

[18] = system: giant foxtail (Setaria faberii); assay: Test B preemergence
Summary of the method: as §1

[19] = system: morning glory (Ipomoea hederacea); assay: Test B preemergence
Summary of the method: as §1

rice (Oryza saliva) = assay: Test B preemergence
Summary of the method: as §1

[20] = system: crabgrass (Digitaria sanguinalis); assay: Test B preemergence
Summary of the method: as §1

[21] = system: Surinam grass (Brachiaria decumbens); assay: Test B preemergence
Summary of the method: as §1

corn (Zea mays) [22] = assay: Test B preemergence
Summary of the method: as §1

[23] = Rate 125 g/ha, scale 0 (no effect) to 100 (complete control)
[24] = Rate 500 g/ha, scale 0 to 100, 0 is no effect, 100 is complete control
[25] = Preemergence, Rate 500 g/ha, scale 0 to 100, 0 no effect, 100 complete control
[26] = preemergence, Rate 125 g/ha, scale 0 to 100, 0 no effect, 100 complete control
[27] = preemergence, Rate 125 g/ha, scale of 0 to 100 where 0 is no effect and 100 is complete control, 13 to 15 days

COc1cc(N2CCC(n3ccc(C(C)(C)C)n3)C2=O)ccc1C (centres unmarked) [Compound 42]
Plant response rating, Velvetleaf [1, 23]: 50 | Plant response rating, Velvetleaf [1, 24]: 80 | Plant response rating, Cocklebur [2, 23]: 40 | Plant response rating, Cocklebur [2, 24]: 60 | Plant response rating, Pigweed [3, 23]: 80 | Plant response rating, Pigweed [3, 24]: 100 | Plant response rating, Lambsquarters [4, 23]: 70 | Plant response rating, Lambsquarters [4, 24]: 100 | Plant response rating, Barnyardgrass [5, 23]: 60 | Plant response rating, Barnyardgrass [5, 24]: 100 | Plant response rating, Foxtail, Giant [6, 23]: 50 | Plant response rating, Foxtail, Giant [6, 24]: 70 | Plant response rating, Blackgrass [7, 23]: 0 | Plant response rating, Blackgrass [7, 24]: 50 | Plant response rating, Morningglory [8, 23]: 60 | Plant response rating, Morningglory [8, 24]: 100 | Plant response rating, Crabgrass [9, 23]: 50 | Plant response rating, Crabgrass [9, 24]: 80 | Plant response rating, Surinam grass [10, 23]: 0 | Plant response rating, Surinam grass [10, 24]: 0 | Plant response rating, Wild Oat (wild oat (Avena fatua); [23]): 0 | Plant response rating, Wild Oat (wild oat (Avena fatua); [24]): 40 | Plant response rating, Corn (corn (Zea mays) [11]; [23]): 0 | Plant response rating, Corn (corn (Zea mays) [11]; [24]): 40 | Plant response rating, Wheat [12, 23]: 0 | Plant response rating, Wheat [12, 24]: 0 | Plant response rating, Velvetleaf [13, 25]: 90 | Plant response rating, Cocklebur [14, 25]: 70 | Plant response rating, Cocklebur [14, 26]: 0 | Plant response rating, Pigweed [15, 25]: 100 | Plant response rating, Lambsquarters [16, 25]: 100 | Plant response rating, Lambsquarters [16, 26]: 100 | Plant response rating, Barnyardgrass [17, 25]: 100 | Plant response rating, Barnyardgrass [17, 26]: 100 | Plant response rating, Foxtail, Giant [18, 25]: 100 | Plant response rating, Foxtail, Giant [18, 26]: 100 | Plant response rating, Morningglory [19, 25]: 100 | Plant response rating, Rice (rice (Oryza saliva); [25]): 100 | Plant response rating, Crabgrass [20, 25]: 100 | Plant response rating, Crabgrass [20, 26]: 100 | Plant response rating, Surinam grass [21, 25]: 100 | Plant response rating, Surinam grass [21, 26]: 90 | Plant response rating, Corn (corn (Zea mays) [22]; [25]): 20 | Plant response rating, Corn (corn (Zea mays) [22]; [26]): 20

CC1(c2ccn(C3OCN(c4cccc(OC(F)(F)F)c4)C3=O)n2)CC1 (centres unmarked) [Compound 69]
Plant response rating, Velvetleaf [1, 23]: 0 | Plant response rating, Velvetleaf [1, 24]: 0 | Plant response rating, Cocklebur [2, 23]: 0 | Plant response rating, Cocklebur [2, 24]: 20 | Plant response rating, Pigweed [3, 23]: 0 | Plant response rating, Pigweed [3, 24]: 0 | Plant response rating, Lambsquarters [4, 23]: 80 | Plant response rating, Lambsquarters [4, 24]: 80 | Plant response rating, Barnyardgrass [5, 23]: 0 | Plant response rating, Barnyardgrass [5, 24]: 90 | Plant response rating, Foxtail, Giant [6, 23]: 0 | Plant response rating, Foxtail, Giant [6, 24]: 0 | Plant response rating, Blackgrass [7, 23]: 70 | Plant response rating, Blackgrass [7, 24]: 70 | Plant response rating, Morningglory [8, 23]: 0 | Plant response rating, Morningglory [8, 24]: 0 | Plant response rating, Crabgrass [9, 23]: 0 | Plant response rating, Crabgrass [9, 24]: 30 | Plant response rating, Surinam grass [10, 23]: 0 | Plant response rating, Surinam grass [10, 24]: 0 | Plant response rating, Wild Oat (wild oat (Avena fatua); [23]): 0 | Plant response rating, Wild Oat (wild oat (Avena fatua); [24]): 0 | Plant response rating, Corn (corn (Zea mays) [11]; [23]): 0 | Plant response rating, Corn (corn (Zea mays) [11]; [24]): 0 | Plant response rating, Wheat [12, 23]: 0 | Plant response rating, Wheat [12, 24]: 0 | Plant response rating, Velvetleaf [13, 25]: 0 | Plant response rating, Velvetleaf [13, 27]: 0 | Plant response rating, Cocklebur [14, 25]: 20 | Plant response rating, Cocklebur [14, 27]: 0 | Plant response rating, Pigweed [15, 25]: 90 | Plant response rating, Pigweed [15, 27]: 60 | Plant response rating, Lambsquarters [16, 25]: 100 | Plant response rating, Lambsquarters [16, 27]: 90 | Plant response rating, Barnyardgrass [17, 25]: 40 | Plant response rating, Barnyardgrass [17, 27]: 20 | Plant response rating, Foxtail, Giant [18, 25]: 0 | Plant response rating, Foxtail, Giant [18, 27]: 0 | Plant response rating, Morningglory [19, 25]: 0 | Plant response rating, Morningglory [19, 27]: 0 | Plant response rating, Rice (rice (Oryza saliva); [25]): 0 | Plant response rating, Rice (rice (Oryza saliva); [27]): 0 | Plant response rating, Crabgrass [20, 25]: 0 | Plant response rating, Crabgrass [20, 27]: 0 | Plant response rating, Surinam grass [21, 25]: 20 | Plant response rating, Surinam grass [21, 27]: 20 | Plant response rating, Corn (corn (Zea mays) [22]; [25]): 0 | Plant response rating, Corn (corn (Zea mays) [22]; [27]): 0

Reference: US7138361B2, “Herbicidal heterocycles” (E. I. du Pont de Nemours and Company, priority 2000, dated 2006)
